Data on 20 molecules can be found in patent US10138227B2, “Heteroaryl substituted pyridines and methods of use” (AbbVie S.à.r.l., priority 2016, dated 2018).

SMILES strings stand for the structures. A value given as a limit tells only on which side of the number the result lay.

The assay concerns the target T1, CFTR ΔF508 mutant (Homo sapiens, UniProt P13569, DEL508-508).
T1 construct: expressed in transfected cells; host or cells: CFBE41o- cells transduced with adenoviral vectors
Briefly: YFP-halide influx assay for the CFTR-ΔF508 mutation. In kind it is cell-based. To be noted: CFBE41o- cells expressing CFTR ΔF508 and YFP reporter, forskolin 10.67 μM; for EC50: (1-F/F0) vs concentration. From the text: The YFP halide influx assay measured the functionality of the cystic fibrosis Transmembrane Conductance regulator (CFTR) channels in the cystic fibrosis bronchial epithelium cell line CFBE41o-. The assay was used to evaluate the capacity of compounds to increase the open probability of existing CFTR channels in the membrane. It makes use of the observation that the yellow fluorescent protein (YFP) variant YFP H148Q, I152L, F47L has its fluorescence substantially quenched by halide ions like Cl^− and I^− (Galietta, L. J. V., Haggie, P. M., Verkman, A. S., 2001. Green fluorescent protein-based halide indicators with improved chloride and iodide affinities. FEBS Lett. 499, 220-224. doi:10.1016/S0014-5793(01)02561-3; Nagai, T., Ibata, K., Park, E. S., Kubota, M., Mikoshiba, K., Miyawaki, A., 2002. A variant of yellow fluorescent protein with fast and efficient maturation for cell-biological applications. Nat. Biotechnol. 20, 87-90. doi:10.1038/nbt0102-87).
For this purpose, CFBE410-cells were seeded in 384 well plates (3000 CFBE cells/well). One day after seeding, the CFBE cells were transduced with adenoviral vectors that direct the expression of the CFTR ΔF508 mutant and of the YFP reporter. Cells were incubated at 27° C., 5% CO2 for 24 hours so as to allow for the proper folding and migration to the membrane of the CFTR channel or treated with a CFTR modulator during 24 hours at 37° C.
The I-induced quenching of fluorescence was recorded on an immediately after injection of iodide for 2 minutes on an FDSS/μCell (Hamamatsu). The capacity of a compound to increase the channel opening was directly correlated with the decrease in fluorescence, and was expressed as (1-(fluorescence after 36 seconds (F)/fluorescence before injection (F0))) and an EC50 was derived from a (1-F/F0) vs compound concentration plot.

As a reminder, the EC50 is the concentration giving half of the maximal effect. Low readings indicate an effect from little substance, high ones a need for much substance.

T1 sequence (P13569 with tags, fused parts or gaps DEL508-508): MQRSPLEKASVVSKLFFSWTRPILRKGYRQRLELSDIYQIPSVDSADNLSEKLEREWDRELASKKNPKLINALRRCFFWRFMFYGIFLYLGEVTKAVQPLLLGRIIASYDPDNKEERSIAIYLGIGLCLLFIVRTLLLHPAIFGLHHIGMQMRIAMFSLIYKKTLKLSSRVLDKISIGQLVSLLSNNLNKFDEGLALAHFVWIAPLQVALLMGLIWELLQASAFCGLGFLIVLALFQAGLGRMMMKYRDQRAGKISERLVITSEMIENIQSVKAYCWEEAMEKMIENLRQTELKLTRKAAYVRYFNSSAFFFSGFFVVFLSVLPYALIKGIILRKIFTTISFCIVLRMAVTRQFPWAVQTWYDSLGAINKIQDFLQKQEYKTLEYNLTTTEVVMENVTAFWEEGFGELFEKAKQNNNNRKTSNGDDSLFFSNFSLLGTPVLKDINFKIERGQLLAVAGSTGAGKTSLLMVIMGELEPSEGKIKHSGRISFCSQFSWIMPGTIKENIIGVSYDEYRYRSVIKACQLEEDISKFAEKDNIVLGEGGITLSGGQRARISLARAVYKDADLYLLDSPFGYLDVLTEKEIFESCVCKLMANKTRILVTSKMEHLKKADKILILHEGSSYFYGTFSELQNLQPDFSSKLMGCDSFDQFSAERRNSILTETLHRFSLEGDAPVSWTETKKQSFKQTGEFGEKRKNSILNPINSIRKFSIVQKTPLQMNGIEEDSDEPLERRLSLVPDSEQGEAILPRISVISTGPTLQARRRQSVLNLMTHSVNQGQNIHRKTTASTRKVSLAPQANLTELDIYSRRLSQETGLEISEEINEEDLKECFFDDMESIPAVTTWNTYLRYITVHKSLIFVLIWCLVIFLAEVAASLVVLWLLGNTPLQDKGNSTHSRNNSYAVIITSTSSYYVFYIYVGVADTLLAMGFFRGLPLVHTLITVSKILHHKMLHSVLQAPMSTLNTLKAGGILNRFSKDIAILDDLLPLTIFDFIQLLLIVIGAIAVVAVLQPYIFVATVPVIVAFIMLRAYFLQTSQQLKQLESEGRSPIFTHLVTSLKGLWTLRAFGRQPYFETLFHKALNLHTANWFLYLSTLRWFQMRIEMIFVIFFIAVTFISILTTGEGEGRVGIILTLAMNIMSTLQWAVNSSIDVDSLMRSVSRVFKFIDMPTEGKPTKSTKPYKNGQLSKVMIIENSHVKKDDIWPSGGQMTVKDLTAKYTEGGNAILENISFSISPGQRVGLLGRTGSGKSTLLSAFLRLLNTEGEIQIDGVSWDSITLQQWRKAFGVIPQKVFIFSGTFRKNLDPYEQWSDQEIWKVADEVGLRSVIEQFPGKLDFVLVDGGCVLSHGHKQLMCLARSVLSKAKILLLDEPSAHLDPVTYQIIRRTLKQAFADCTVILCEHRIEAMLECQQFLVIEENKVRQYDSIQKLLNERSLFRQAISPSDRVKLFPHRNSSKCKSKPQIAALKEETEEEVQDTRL

For `Nc1cc(S(=O)(=O)c2ccc(OC(F)(F)F)cc2)cnc1-c1nnc(COC(F)F)s1` [Compound 30, 2-{5-[(difluoromethoxy)methyl]-1,3,4-thiadiazol-2-yl}-5-[4-(trifluoromethoxy)benzene-1-sulfonyl]pyridin-3-amine], the “% Activation” value is given as 94.98% and the 50% effective concentration (EC50) was 3.61 nM.
For `Nc1cc(S(=O)(=O)c2ccc(OC(F)(F)F)cc2)cnc1-c1nnc(C[C@@H]2CCCO2)s1` [Compound 31, 2-(5-{[(2S)-oxolan-2-yl]methyl}-1,3,4-thiadiazol-2-yl)-5-[4-(trifluoromethoxy)benzene-1-sulfonyl]pyridin-3-amine], in that order: 102.85% and 36.9 nM.
Take `Nc1cc(S(=O)(=O)c2ccc(OC(F)(F)F)cc2)cnc1-c1nnc(C[C@H]2CCCO2)s1` [Compound 32, 2-(5-{[(2R)-oxolan-2-yl]methyl}-1,3,4-thiadiazol-2-yl)-5-[4-(trifluoromethoxy)benzene-1-sulfonyl]pyridin-3-amine]: the “% Activation” value is on record as 105.02% and the 50% effective concentration (EC50) amounted to 36.6 nM.
In the case of `COCCOCc1nnc(-c2ncc(S(=O)(=O)c3ccc(OC(F)(F)F)cc3)cc2N)o1` [Compound 33, 2-{5-[(2-methoxyethoxy)methyl]-1,3,4-oxadiazol-2-yl}-5-[4-(trifluoromethoxy)benzene-1-sulfonyl]pyridin-3-amine], the “% Activation” value turned out to be 103.5% and the response was half-maximal at 39.8 nM (EC50).
`CO[C@H](C)c1nnc(-c2ncc(S(=O)(=O)c3ccc(OC(F)(F)F)cc3)cc2N)o1` [Compound 34, 2-{5-[(1R)-1-methoxyethyl]-1,3,4-oxadiazol-2-yl}-5-[4-(trifluoromethoxy)benzene-1-sulfonyl]pyridin-3-amine]: the “% Activation” value is given as 102.19% and a half-maximal effect (EC50) was put at 21.3 nM.
For `CO[C@@H](C)c1nnc(-c2ncc(S(=O)(=O)c3ccc(OC(F)(F)F)cc3)cc2N)o1` [Compound 35, 2-{5-[(1S)-1-methoxyethyl]-1,3,4-oxadiazol-2-yl}-5-[4-(trifluoromethoxy)benzene-1-sulfonyl]pyridin-3-amine], in that order: 98.52% and 20.8 nM.
Consider `CCOCc1nnc(-c2ncc(S(=O)(=O)c3ccc(OC(F)(F)F)cc3)cc2N)o1` [Compound 36, 2-[5-(ethoxymethyl)-1,3,4-oxadiazol-2-yl]-5-[4-(trifluoromethoxy)benzene-1-sulfonyl]pyridin-3-amine], for which the “% Activation” value is given as 102.93% and the half-maximal effective concentration (EC50) amounted to 12.3 nM.
As to `COCc1nnc(-c2ncc(S(=O)(=O)c3ccc(OC(F)(F)F)cc3)cc2N)o1` [Compound 37, 2-[5-(methoxymethyl)-1,3,4-oxadiazol-2-yl]-5-[4-(trifluoromethoxy)benzene-1-sulfonyl]pyridin-3-amine], the “% Activation” value turned out to be 119.85% and the midpoint of the response, the EC50, lay at 28.7 nM.
As to `Nc1cc(S(=O)(=O)c2ccc(OC(F)(F)F)cc2)cnc1-c1nnc(COc2cccnc2)o1` [Compound 38, 2-(5-{[(pyridin-3-yl)oxy]methyl}-1,3,4-oxadiazol-2-yl)-5-[4-(trifluoromethoxy)benzene-1-sulfonyl]pyridin-3-amine], the “% Activation” value worked out at 109.05% and the EC50 was 224 nM.
For `Nc1cc(S(=O)(=O)c2ccc(OC(F)(F)F)cc2)cnc1-c1nnc(COC(F)F)o1` [Compound 39, 2-{5-[(difluoromethoxy)methyl]-1,3,4-oxadiazol-2-yl}-5-[4-(trifluoromethoxy)benzene-1-sulfonyl]pyridin-3-amine], in that order: 119.45% and 9.88 nM.
Turning to `Nc1cc(S(=O)(=O)c2ccc(OC(F)(F)F)cc2)cnc1-c1nnc(C[C@@H]2CCCO2)o1` [Compound 40, 2-(5-{[(2S)-oxolan-2-yl]methyl}-1,3,4-oxadiazol-2-yl)-5-[4-(trifluoromethoxy)benzene-1-sulfonyl]pyridin-3-amine], the “% Activation” value stood at 106.65% and the EC50 was determined as 36.8 nM.
Turning to `Nc1cc(S(=O)(=O)c2ccc(OC(F)(F)F)cc2)cnc1-c1nnc(C[C@H]2CCCO2)o1` [Compound 41, 2-(5-{[(2R)-oxolan-2-yl]methyl}-1,3,4-oxadiazol-2-yl)-5-[4-(trifluoromethoxy)benzene-1-sulfonyl]pyridin-3-amine], the “% Activation” value was 96.97% and the EC50 was determined as 41.3 nM.
For the molecule `CC(O)c1nnc(-c2ncc(S(=O)(=O)c3ccc(OC(F)(F)F)cc3)cc2N)o1` (stereo not shown) [Compound 42, 1-(5-{3-amino-5-[4-(trifluoromethoxy)benzene-1-sulfonyl]pyridin-2-yl}-1,3,4-oxadiazol-2-yl)ethan-1-ol], the “% Activation” value is 109.65% and the EC50 was found to be 1.57 nM.
For `CC(C)(O)c1nnc(-c2ncc(S(=O)(=O)c3ccc(OC(F)(F)F)cc3)cc2N)o1` [Compound 43, 2-(5-{3-amino-5-[4-(trifluoromethoxy)benzene-1-sulfonyl]pyridin-2-yl}-1,3,4-oxadiazol-2-yl)propan-2-ol], in that order: 110.8% and below 0.77 nM.
Consider `Nc1cc(S(=O)(=O)c2ccc(OC(F)(F)F)cc2)cnc1-c1nnc([C@@H](O)Cc2ccccc2)o1` [Compound 44, (1S)-1-(5-{3-amino-5-[4-(trifluoromethoxy)benzene-1-sulfonyl]pyridin-2-yl}-1,3,4-oxadiazol-2-yl)-2-phenyl ethan-1-ol], for which the “% Activation” value was determined as 105.25% and the 50% effective concentration (EC50) worked out at 1.63 nM.
Take `Nc1cc(S(=O)(=O)c2ccc(OC(F)(F)F)cc2)cnc1-c1nnc([C@@H](O)c2ccccc2)o1` [Compound 45, (S)-(5-{3-amino-5-[4-(trifluoromethoxy)benzene-1-sulfonyl]pyridin-2-yl}-1,3,4-oxadiazol-2-yl)(phenyl)methanol]: the “% Activation” value was 109.25% and the EC50 is 1.13 nM.
Take `COC(C)(C)c1noc(-c2ncc(S(=O)(=O)c3ccc(OC(F)(F)F)cc3)cc2N)n1` [Compound 46, 2-[3-(2-methoxypropan-2-yl)-1,2,4-oxadiazol-5-yl]-5-[4-(trifluoromethoxy)benzene-1-sulfonyl]pyridin-3-amine]: the “% Activation” value is 82.3% and the 50% effective concentration (EC50) is above 1660 nM.
For `COC(C)c1noc(-c2ncc(S(=O)(=O)c3ccc(OC(F)(F)F)cc3)cc2N)n1` (stereo not shown) [Compound 47, 2-[3-(1-methoxyethyl)-1,2,4-oxadiazol-5-yl]-5-[4-(trifluoromethoxy)benzene-1-sulfonyl]pyridin-3-amine], the “% Activation” value was determined as 59.4% and the EC50 was above 1660 nM.
In the case of `Nc1cc(S(=O)(=O)c2ccc(OC(F)(F)F)cc2)cnc1-c1nc(C2CCOCC2)no1` [Compound 48, 2-[3-(oxan-4-yl)-1,2,4-oxadiazol-5-yl]-5-[4-(trifluoromethoxy)benzene-1-sulfonyl]pyridin-3-amine], the “% Activation” value is given as 6.28% and the EC50 is above 4990 nM.
For `Nc1cc(S(=O)(=O)c2ccc(OC(F)(F)F)cc2)cnc1-c1nc(COc2ccc(F)cc2)no1` [Compound 49, 2-{3-[(4-fluorophenoxy)methyl]-1,2,4-oxadiazol-5-yl}-5-[4-(trifluoromethoxy)benzene-1-sulfonyl]pyridin-3-amine], in that order: 29.2% and above 3320 nM.
